# Test results: PubChem BioAssay (NCI)
#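 Assay format: 96-well plates, 48-hour exposure. GI50 = concentration required for 50% inhibition of growth. TGI: concentration producing complete growth inhibition.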
# What was measured:
# Assay in all cases: growth of human tumour cells (NCI), 48 h
# [1] = tested on: SR leukemia
# [2] = tested on: HT29 colon
# [3] = tested on: DU-145 prostate
# [4] = tested on: SNB-19 CNS
# [5] = tested on: HL-60(TB) leukemia
# [6] = tested on: CAKI-1 renal
# [7] = tested on: ACHN renal
# [8] = tested on: SF-539 CNS
# [9] = tested on: RXF 393 renal
# [10] = tested on: NCI-H226 lung
# [11] = tested on: SW-620 colon
# [12] = tested on: A549 NSCLC
# [13] = tested on: OVCAR-4 ovarian
# [14] = tested on: NCI-H23 lung
# [15] = tested on: HS 578T breast
# [16] = tested on: T-47D breast
# [17] = tested on: M14 melanoma
# [18] = tested on: 786-0 renal
# [19] = tested on: SNB-75 CNS
# [20] = tested on: NCI/ADR-RES ovarian
# [21] = tested on: IGROV1 ovarian
# [22] = tested on: HCC-2998 colon
# [23] = tested on: OVCAR-8 ovarian
# [24] = tested on: UACC-62 melanoma
# [25] = tested on: PC-3 prostate
# [26] = tested on: NCI-H460 lung
# [27] = tested on: A498 renal
# [28] = tested on: MDA-MB-435
# [29] = tested on: U251 CNS
# [30] = tested on: MOLT-4 leukemia
# [31] = tested on: SK-OV-3 ovarian
# [32] = tested on: SK-MEL-28 melanoma
# [33] = tested on: COLO 205 colon
# [34] = tested on: HCT-15 colon
# [35] = tested on: OVCAR-5 ovarian
# [36] = tested on: K-562 leukemia
# [37] = tested on: MCF7 breast
# [38] = tested on: HOP-92 NSCLC
# [39] = tested on: UACC-257 melanoma
# [40] = tested on: RPMI-8226 leukemia
# [41] = tested on: SK-MEL-5 melanoma
# [42] = tested on: HCT-116 colon
# [43] = tested on: UO-31 renal
# [44] = tested on: OVCAR-3 ovarian
# [45] = tested on: CCRF-CEM leukemia
# [46] = tested on: TK-10 renal
# [47] = tested on: MALME-3M melanoma
# [48] = tested on: KM12 colon
# [49] = tested on: SN12C renal
# [50] = tested on: SF-268 CNS
# [51] = tested on: BT-549 breast
# [52] = tested on: LOX IMVI melanoma
# [53] = tested on: EKVX NSCLC
# [54] = tested on: MDA-MB-231 breast
# [55] = tested on: SK-MEL-2 melanoma
# [56] = tested on: NCI-H522 lung
# [57] = tested on: HOP-62 NSCLC
# [58] = tested on: SF-295 CNS
structure (smiles),measurement,setting,value
CCOP(=O)(OCC)OC[C@]12CCC(C)(C)C[C@H]1C1=CC[C@@H]3[C@@]4(C)C/C(=C\c5cccnc5)[C@H](OP(=O)(OCC)OCC)C(C)(C)[C@@H]4CC[C@@]3(C)[C@]1(C)CC2,GI50,[1],1.02 µM
same,TGI,[1],2.78 µM
same,GI50,[2],1.52 µM
same,TGI,[2],3.16 µM
same,GI50,[3],1.75 µM
same,TGI,[3],3.3 µM
same,GI50,[4],1.66 µM
same,TGI,[4],3.14 µM
same,GI50,[5],0.581 µM
same,TGI,[5],2.3 µM
same,GI50,[6],1.09 µM
same,TGI,[6],2.65 µM
same,GI50,[7],2.3 µM
same,TGI,[7],7.14 µM
same,GI50,[8],1.73 µM
same,TGI,[8],3.2 µM
same,GI50,[9],1.19 µM
same,TGI,[9],2.49 µM
same,GI50,[10],1.44 µM
same,TGI,[10],3.13 µM
same,GI50,[11],1.79 µM
same,TGI,[11],3.61 µM
same,GI50,[12],2 µM
same,TGI,[12],5.59 µM
same,GI50,[13],1.7 µM
same,TGI,[13],4.37 µM
same,GI50,[14],1.61 µM
same,TGI,[14],3.29 µM
same,GI50,[15],2.06 µM
same,TGI,[15],5.38 µM
same,GI50,[16],1.58 µM
same,TGI,[16],8.35 µM
same,GI50,[17],1.8 µM
same,TGI,[17],3.7 µM
same,GI50,[18],1.86 µM
same,TGI,[18],3.89 µM
same,GI50,[19],1.6 µM
same,TGI,[19],3.91 µM
same,GI50,[20],2.25 µM
same,TGI,[20],6.05 µM
same,GI50,[21],2.21 µM
same,TGI,[21],5.61 µM
same,GI50,[22],1.59 µM
same,TGI,[22],3.03 µM
same,GI50,[23],2.29 µM
same,TGI,[23],6.52 µM
same,GI50,[24],1.28 µM
same,TGI,[24],2.88 µM
same,GI50,[25],0.727 µM
same,TGI,[25],2.77 µM
same,GI50,[26],1.78 µM
same,TGI,[26],3.55 µM
same,GI50,[27],1.64 µM
same,TGI,[27],4.44 µM
same,GI50,[28],1.6 µM
same,TGI,[28],3.23 µM
same,GI50,[29],1.61 µM
same,TGI,[29],3.2 µM
same,GI50,[30],0.715 µM
same,TGI,[30],2.42 µM
same,GI50,[31],2.1 µM
same,TGI,[31],5.28 µM
same,GI50,[32],1.71 µM
same,TGI,[32],3.27 µM
same,GI50,[33],1.57 µM
same,TGI,[33],3.32 µM
same,GI50,[34],1.56 µM
same,TGI,[34],3.43 µM
same,GI50,[35],1.79 µM
same,TGI,[35],3.34 µM
same,GI50,[36],1.18 µM
same,TGI,[36],3.53 µM
same,GI50,[37],1.37 µM
same,TGI,[37],3.04 µM
same,GI50,[38],1.22 µM
same,TGI,[38],2.9 µM
same,GI50,[39],1.64 µM
same,TGI,[39],4.06 µM
same,GI50,[40],0.939 µM
same,TGI,[40],3.33 µM
same,GI50,[41],1.42 µM
same,TGI,[41],2.73 µM
same,GI50,[42],1.25 µM
same,TGI,[42],2.58 µM
same,GI50,[43],1.92 µM
same,TGI,[43],6.04 µM
same,GI50,[44],1.68 µM
same,TGI,[44],3.39 µM
same,GI50,[45],1.77 µM
same,TGI,[45],4 µM
same,GI50,[46],2.68 µM
same,TGI,[46],6.32 µM
O=C(Nc1ccc(Cl)c(C(F)(F)F)c1)Nc1ccc2c(ccn2C(=O)c2cccc(F)c2)c1,GI50,[1],2.13 µM
same,TGI,[1],9.12 µM
same,GI50,[47],1.92 µM
same,TGI,[47],5.87 µM
same,GI50,[2],3.16 µM
same,TGI,[2],50.8 µM
same,GI50,[3],3.5 µM
same,TGI,[3],48.8 µM
same,GI50,[4],3.18 µM
same,TGI,[4],14.1 µM
same,GI50,[5],2.33 µM
same,TGI,[5],7.82 µM
same,GI50,[6],2.16 µM
same,TGI,[6],9.07 µM
same,GI50,[48],2.83 µM
same,TGI,[48],12 µM
same,GI50,[7],2.56 µM
same,TGI,[7],7.47 µM
same,GI50,[8],2.71 µM
same,TGI,[8],8.26 µM
same,GI50,[9],1.74 µM
same,TGI,[9],4.08 µM
same,GI50,[49],3.1 µM
same,TGI,[49],15.8 µM
same,GI50,[10],2.46 µM
same,TGI,[10],7.5 µM
same,GI50,[11],3.5 µM
same,TGI,[11],35.8 µM
same,GI50,[12],2.9 µM
same,TGI,[12],22.7 µM
same,GI50,[50],3.43 µM
same,TGI,[50],> 100 µM
same,GI50,[13],2.98 µM
same,TGI,[13],> 100 µM
same,GI50,[51],2.61 µM
same,TGI,[51],8.98 µM
same,GI50,[52],1.43 µM
same,TGI,[52],3.28 µM
same,GI50,[15],2.8 µM
same,TGI,[15],8.55 µM
same,GI50,[16],2.53 µM
same,TGI,[16],9.11 µM
same,GI50,[17],3.22 µM
same,TGI,[17],16.8 µM
same,GI50,[18],2.63 µM
same,TGI,[18],11.1 µM
same,GI50,[19],1.9 µM
same,TGI,[19],9.11 µM
same,GI50,[20],2.5 µM
same,TGI,[20],7.25 µM
same,GI50,[21],2.75 µM
same,TGI,[21],10.6 µM
same,GI50,[22],2.49 µM
same,TGI,[22],9.04 µM
same,GI50,[23],3.15 µM
same,TGI,[23],17.9 µM
same,GI50,[53],2.2 µM
same,TGI,[53],7.8 µM
same,GI50,[54],2.91 µM
same,TGI,[54],11 µM
same,GI50,[24],2.53 µM
same,TGI,[24],15.3 µM
same,GI50,[25],2.92 µM
same,TGI,[25],33.5 µM
same,GI50,[55],2.36 µM
same,TGI,[55],6.89 µM
same,GI50,[26],2.8 µM
same,TGI,[26],10 µM
same,GI50,[27],2.67 µM
same,TGI,[27],9.86 µM
same,GI50,[28],2.84 µM
same,TGI,[28],14.1 µM
same,GI50,[29],3.01 µM
same,TGI,[29],11.4 µM
same,GI50,[30],3.4 µM
same,TGI,[30],> 100 µM
same,GI50,[31],2.79 µM
same,TGI,[31],8.99 µM
same,GI50,[32],3.37 µM
same,TGI,[32],19.6 µM
same,GI50,[56],2.42 µM
same,TGI,[56],7.67 µM
same,GI50,[33],2.25 µM
same,TGI,[33],5.57 µM
same,GI50,[34],2.37 µM
same,TGI,[34],9.7 µM
same,GI50,[35],4.86 µM
same,TGI,[35],38.9 µM
same,GI50,[36],3.15 µM
same,TGI,[36],16.4 µM
same,GI50,[37],2.12 µM
same,TGI,[37],7.66 µM
same,GI50,[38],2.07 µM
same,TGI,[38],5.77 µM
same,GI50,[39],2.44 µM
same,TGI,[39],7.74 µM
same,GI50,[40],2.78 µM
same,TGI,[40],10.9 µM
same,GI50,[41],2.4 µM
same,TGI,[41],6.64 µM
same,GI50,[57],2.45 µM
same,TGI,[57],7.81 µM
same,GI50,[58],1.93 µM
same,TGI,[58],4.76 µM
same,GI50,[42],3 µM
same,TGI,[42],10.6 µM
same,GI50,[43],1.7 µM
same,TGI,[43],4.42 µM
same,GI50,[44],2.16 µM
same,TGI,[44],6.2 µM
same,GI50,[45],3.78 µM
same,TGI,[45],> 100 µM
same,GI50,[46],2.91 µM
same,TGI,[46],36.5 µM
